Tested on: C57BL/6 male mice
Test: Glucose tolerance test in mice: plasma insulin concentration (ELISA)
Type: in vivo
Settings: 1000 mg/kg oral; for Plasma insulin concentration: glucose 2.5 g/kg 60 minutes after sample, blood 30 minutes after glucose, mean±standard error; for Effect on plasma insulin concentration (in words): wild-type mice, glucose tolerance test
Description: A glucose tolerance test was carried out by the following method to examine the effect by administration of various medium chain fatty acids (capric acid or lauric acid, both are a free body) to mice on plasma insulin secretion at that time. Note here that the above-mentioned medium chain fatty acid corresponds to a GPR84 agonist. Ten tablets of PBS (trade name “Phosphate Buffered Salts Tablets”, manufactured by Takara Bio Inc.) were dissolved in distilled water, and the total volume was adjusted to 1000 ml. To 10 ml of the prepared solution, 50 mg of carboxymethyl cellulose (trade name “Carboxymethyl cellulose sodium”, manufactured by FUJIFILM Wako Pure Chemical Industries, Ltd.) was added and mixed to obtain a carrier solution. To the obtained carrier solution, 2 g of capric acid (trade name “Decanoic acid”, manufactured by FUJIFILM Wako Pure Chemical Industries, Ltd.) was added, and mixed while heating to obtain a capric acid sample. A carrier solution was obtained in the same manner as in the (1-2) above. To the obtained carrier solution, 2 g of lauric acid (trade name “Dodecanoic acid”, manufactured by Sigma-Aldrich) was added and mixed while heating to obtain a lauric acid sample. Ten tablets of PBS (trade name “Phosphate Buffered Salts Tablets”, manufactured by Takara Bio Inc.) were dissolved in distilled water, and the total amount was adjusted to 1000 ml. To 10 ml of the prepared solution, 2.5 g of glucose (trade name “D(+)-glucose”, manufactured by FUJIFILM Wako Pure Chemical Industries, Ltd.) was added to obtain a glucose liquid. Based on the following method, any one of a control sample, a capric acid sample, and a lauric acid sample was administered to mice in each group, and then a glucose solution was further administered to carry out a glucose tolerance test. C57BL/6 male mice at 7- to 9-weeks old were purchased from Japan SLC, Inc. Each mouse (15 mice in total) was acclimatized for 1 week and then divided into three groups (a control sample administration group, a capric acid sample administration group, and a lauric acid sample administration group) so that the average body weight was uniform. […] Plasma was prepared from the obtained blood by a conventional method, and the plasma insulin concentration (pg/ml) was measured. The plasma insulin concentration was measured by ELISA using a commercially available kit (trade name “Revis (trademark) Insulin-Mouse (RTU)”, manufactured by Fujifilm Wako Shibayagi Co., Ltd.). In the data of FIG. 2 and Table 2, the measured value of the plasma insulin concentration was expressed as “mean±standard error”. Dunnet's test was used to test significant differences between trials, and significant differences were determined to exist when the risk rate was less than 5% (*p<0.05).

CCCCCCCCCC(=O)O [Capric acid, capric acid (n-decanoic acid)]
Plasma insulin concentration: 395.1 ± 26.1 * pg/ml
Effect on plasma insulin concentration (in words): significantly increased plasma insulin concentrations

CCCCCCCCCCCC(=O)O [Lauric acid, lauric acid]
Plasma insulin concentration: 702.8 ± 84.4 * pg/ml
Effect on plasma insulin concentration (in words): significantly increased plasma insulin concentrations

From patent publication US20240156767A1, “SCREENING METHOD FOR GLP-1 SECRETION REGULATION AGENT, GLP-1 SECRETION REGULATION AGENT, COMPOSITION FOR PREVENTING OR AMELIORATING DIABETES, OBESITY, POSTPRANDIAL HYPERGLYCEMIA, NEURODEGENERATIVE DISEASE, HYPOGLYCEMIA, ADIPOSITY, OR NESIDIOBLASTOSIS, METHOD FOR PROMOTING SECRETION OF GLP-1 IN …” (The Nisshin OilliO Group, Ltd., priority 2021, published 2024)
